Results: PubChem BioAssay AID1963850 (Molecular Pharmacology Branch, DTP, NCI, 2024)

Tested on: 192522-019-R-J2-PDC complex tumor spheroid viability
Test: Anticancer human tumor 192522-019-R-J2-PDC patient-derived colon adenocarcinoma cell line growth inhibition [POLQ]
Conditions: for IC50: curve of first compound; for viability, T/C: stronger effect = lower value
Method: Multicellular complex tumor spheroid response to Polymerase (POL) inhibitors (novobiocin, ART-558, RP6685) in combination with a variety of drugs and investigational agents in selected tumor cell lines
The POL inhibitors (novobiocin, ART-558, and RP6685) were evaluated both individually and in combination with standard of care and investigational anticancer small molecules within a complex spheroid model of solid tumors. . Complex spheroids include a stromal component modeled by human endothelial cells (HUVEC) and fibroblasts modeled by human mesenchymal stem cells (MSCs). The concentration ranges selected for each drug and investigational agent were based upon clinically achievable concentrations if the clinical Cmax of the agent was known.
Compounds. The drugs and investigational agents: novobiocin (NSC847541), ART-558 (NSC835418), RP-6685 (NSC848927), peposertib (NSC802822), ceralasertib (NSC780249), elimusertib (NSC800525), camonsertib (NSC841442), AZD-1390 (NSC803789), olaparib (NSC753686), talazoparib (NSC767125), rucaparib (NSC756644), sotorasib (NSC818433), MRTX-1133 (NSC836407), SN-38 (NSC673596), topotecan (NSC609699), epotoside (NSC141540), doxorubicin (NSC123127), gemcitabine (NSC613327), 5-fluorouracil (NSC19893), paclitaxel (NSC125973), vemurafenib (NSC761431), MSA-2 (NSC828583), SN-011 (NSC837082), adavosertib (NSC754352), prexasertib (NSC758257), carboplatin (NSC241240) and oxaliplatin (NSC266046), were obtained from the National Cancer Institute (NCI) Developmental Therapeutics Program Chemical Repository (21). The FDA-approved anticancer drug set is available from the Developmental Therapeutics Program at https://dtp.cancer.gov/organization/dscb/obtaining/. […] The stock solutions were prepared in dimethyl sulfoxide (DMSO, Sigma-Aldrich, St. Louis, MO, cat. D2650), except for the platinum compounds which were prepared in saline (Quality Biological, Gaithersburg, MD, cat. 114-055-101), at 800-fold the tested concentration and stored at -70 degrees C prior to their use. All drugs and investigational agents were tested over a range starting from a high concentration at or near the clinical Cmax and decreasing in half-log increments. If the clinical Cmax for an agent had not been determined, the highest concentration tested was 10 microM, except for SN-38, which was tested at a high concentration of 1 microM.
Cell Culture. All cells were maintained in an incubator at 37 degrees C and 5% CO2 with 95% humidity. The PDC lines were cultured according to standard operating procedures established by the NCI PDMR (https://pdmr.cancer.gov). Table 3 of the manuscript, lists the cell lines along with the number of the three cell types plated to form the mct-spheroids and media for tumor cell growth. After thawing, all PDC lines, except 997537-175-T-J1-PDC and 415267-285-R-J2-PDC, were cultured in Matrigel-coated flasks prepared with a working solution of 1X Ham's F-12 nutrient mix, without supplementation (Thermo Fisher Scientific, cat. 11765054), 100 U/mL penicillin-streptomycin (Thermo Fisher Scientific, cat. 15140122), and 2.5% Matrigel (Corning Inc., Corning, NY, cat. 354248) for the first three passages. The two PDC lines 997537-175-T-J1-PDC and 415267-285-R-J2-PDC were cultured on uncoated flasks. The 857933-349-R-J2-PDC line was cultured in 6C/Colon 1B media containing advanced DMEM/F-12 (Thermo Fisher Scientific, cat. 12634028), 10 mM HEPES (Thermo Fisher Scientific, cat. 15630080), 1X GlutaMAX supplement (Thermo Fisher Scientific, cat. 35050061), 0.1 mg/mL primocin (InvivoGen, San Diego, CA, cat. ant-pm-2), 10% defined fetal bovine serum, heat inactivated (HyClone Laboratories Inc., Logan, UT, cat. SH30070.03HI), 50% L-WRN conditioned media (ATCC, cat. CRL-3276), 1.25 mM N-Acetyl-L-cysteine (Sigma-Aldrich, cat. A9165), 10 mM nicotinamide (Sigma-Aldrich, cat. N0636), 1X B-27 supplement (Thermo Fisher Scientific, cat. 17504044), 1X N-2 supplement (Thermo Fisher Scientific, cat. […]

[1] = second compound 0.0316 µM, first compound 0.0316 µM
[2] = second compound 0.0316 µM, first compound 0.1 µM
[3] = second compound 0.0316 µM, first compound 0.316 µM
[4] = second compound 0.0316 µM, first compound 1 µM
[5] = second compound 0.0316 µM, first compound 3.16 µM
[6] = second compound 0.0316 µM, first compound 10 µM
[7] = second compound 0.1 µM, first compound 0.0316 µM
[8] = second compound 0.1 µM, first compound 0.1 µM
[9] = second compound 0.1 µM, first compound 0.316 µM
[10] = second compound 0.1 µM, first compound 1 µM
[11] = second compound 0.1 µM, first compound 3.16 µM
[12] = second compound 0.1 µM, first compound 10 µM
[13] = second compound 0.316 µM, first compound 0.0316 µM
[14] = second compound 0.316 µM, first compound 0.1 µM
[15] = second compound 0.316 µM, first compound 0.316 µM
[16] = second compound 0.316 µM, first compound 1 µM
[17] = second compound 0.316 µM, first compound 3.16 µM
[18] = second compound 0.316 µM, first compound 10 µM
[19] = second compound 1 µM, first compound 0.0316 µM
[20] = second compound 1 µM, first compound 0.1 µM
[21] = second compound 1 µM, first compound 0.316 µM
[22] = second compound 1 µM, first compound 1 µM
[23] = second compound 1 µM, first compound 3.16 µM
[24] = second compound 1 µM, first compound 10 µM
[25] = second compound 3.16 µM, first compound 0.0316 µM
[26] = second compound 3.16 µM, first compound 0.1 µM
[27] = second compound 3.16 µM, first compound 0.316 µM
[28] = second compound 3.16 µM, first compound 1 µM
[29] = second compound 3.16 µM, first compound 3.16 µM
[30] = second compound 3.16 µM, first compound 10 µM
[31] = second compound 10 µM, first compound 0.0316 µM
[32] = second compound 10 µM, first compound 0.1 µM
[33] = second compound 10 µM, first compound 0.316 µM
[34] = second compound 10 µM, first compound 1 µM
[35] = second compound 10 µM, first compound 3.16 µM
[36] = second compound 10 µM, first compound 10 µM
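Also: spheroids exposed to drugs for seven days before reading.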
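For viability, T/C in this document: 100% = DMSO vehicle control viability in luminescence.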

## COc1cc(C2c3cc4c(cc3C(OC3OC5COC(C)OC5C(O)C3O)C3COC(=O)C23)OCO4)cc(OC)c1O (stereo unspecified) + COC1C(OC(N)=O)C(O)C(Oc2ccc3c(O)c(NC(=O)c4ccc(O)c(CC=C(C)C)c4)c(=O)oc3c2C)OC1(C)C
Second compound 0.0316 µM
  IC50: > 10 µM
Second compound 0.1 µM
  IC50: > 10 µM
Second compound 0.316 µM
  IC50: > 10 µM
Second compound 1 µM
  IC50: > 10 µM
Second compound 3.16 µM
  IC50: > 10 µM
Second compound 10 µM
  IC50: > 10 µM
[1]
  viability, T/C: 106%
[2]
  viability, T/C: 89.3%
[3]
  viability, T/C: 92.4%
[4]
  viability, T/C: 82.1%
[5]
  viability, T/C: 58.6%
[6]
  viability, T/C: 54.2%
[7]
  viability, T/C: 104%
[8]
  viability, T/C: 95.7%
[9]
  viability, T/C: 100%
[10]
  viability, T/C: 84%
[11]
  viability, T/C: 56.8%
[12]
  viability, T/C: 59.4%
[13]
  viability, T/C: 95.6%
[14]
  viability, T/C: 97.8%
[15]
  viability, T/C: 101%
[16]
  viability, T/C: 83%
[17]
  viability, T/C: 55.2%
[18]
  viability, T/C: 64%
[19]
  viability, T/C: 106%
[20]
  viability, T/C: 101%
[21]
  viability, T/C: 96.6%
[22]
  viability, T/C: 103%
[23]
  viability, T/C: 59.7%
[24]
  viability, T/C: 57.4%
[25]
  viability, T/C: 110%
[26]
  viability, T/C: 109%
[27]
  viability, T/C: 99.9%
[28]
  viability, T/C: 84.7%
[29]
  viability, T/C: 67%
[30]
  viability, T/C: 60.6%
[31]
  viability, T/C: 107%
[32]
  viability, T/C: 96.2%
[33]
  viability, T/C: 103%
[34]
  viability, T/C: 88.5%
[35]
  viability, T/C: 65.4%
[36]
  viability, T/C: 61.4%

## COc1ccc([C@@H](O)c2cc(-c3ncnc4cc(N5CCOCC5)ccc34)c(F)cc2Cl)nn1 + COC1C(OC(N)=O)C(O)C(Oc2ccc3c(O)c(NC(=O)c4ccc(O)c(CC=C(C)C)c4)c(=O)oc3c2C)OC1(C)C
Second compound 0.0316 µM
  IC50: > 10 µM
Second compound 0.1 µM
  IC50: > 10 µM
Second compound 0.316 µM
  IC50: > 10 µM
Second compound 1 µM
  IC50: > 10 µM
Second compound 3.16 µM
  IC50: > 10 µM
Second compound 10 µM
  IC50: > 10 µM
[1]
  viability, T/C: 105%
[2]
  viability, T/C: 87.2%
[3]
  viability, T/C: 120%
[4]
  viability, T/C: 97.7%
[5]
  viability, T/C: 99.8%
[6]
  viability, T/C: 63.1%
[7]
  viability, T/C: 109%
[8]
  viability, T/C: 97.6%
[9]
  viability, T/C: 106%
[10]
  viability, T/C: 95.5%
[11]
  viability, T/C: 88.1%
[12]
  viability, T/C: 62.4%
[13]
  viability, T/C: 117%
[14]
  viability, T/C: 93.2%
[15]
  viability, T/C: 103%
[16]
  viability, T/C: 107%
[17]
  viability, T/C: 97.8%
[18]
  viability, T/C: 68.5%
[19]
  viability, T/C: 109%
[20]
  viability, T/C: 106%
[21]
  viability, T/C: 104%
[22]
  viability, T/C: 92.9%
[23]
  viability, T/C: 86.8%
[24]
  viability, T/C: 63.1%
[25]
  viability, T/C: 96%
[26]
  viability, T/C: 99.2%
[27]
  viability, T/C: 117%
[28]
  viability, T/C: 84.9%
[29]
  viability, T/C: 98.1%
[30]
  viability, T/C: 72.9%
[31]
  viability, T/C: 103%
[32]
  viability, T/C: 104%
[33]
  viability, T/C: 114%
[34]
  viability, T/C: 108%
[35]
  viability, T/C: 99.2%
[36]
  viability, T/C: 66.9%

## O=c1[nH]cc(F)c(=O)[nH]1 + COC1C(OC(N)=O)C(O)C(Oc2ccc3c(O)c(NC(=O)c4ccc(O)c(CC=C(C)C)c4)c(=O)oc3c2C)OC1(C)C
Second compound 0.0316 µM
  IC50: > 10 µM
Second compound 0.1 µM
  IC50: > 10 µM
Second compound 0.316 µM
  IC50: > 10 µM
Second compound 1 µM
  IC50: > 10 µM
Second compound 3.16 µM
  IC50: > 10 µM
Second compound 10 µM
  IC50: > 10 µM
[1]
  viability, T/C: 99.2%
[2]
  viability, T/C: 75.7%
[3]
  viability, T/C: 78.8%
[4]
  viability, T/C: 72.7%
[5]
  viability, T/C: 73.8%
[6]
  viability, T/C: 64.2%
[7]
  viability, T/C: 91.8%
[8]
  viability, T/C: 80.3%
[9]
  viability, T/C: 77.4%
[10]
  viability, T/C: 71.1%
[11]
  viability, T/C: 71%
[12]
  viability, T/C: 75.8%
[13]
  viability, T/C: 91%
[14]
  viability, T/C: 82%
[15]
  viability, T/C: 84.8%
[16]
  viability, T/C: 73.1%
[17]
  viability, T/C: 71.1%
[18]
  viability, T/C: 68.7%
[19]
  viability, T/C: 89.6%
[20]
  viability, T/C: 78.7%
[21]
  viability, T/C: 74.7%
[22]
  viability, T/C: 77.1%
[23]
  viability, T/C: 70.7%
[24]
  viability, T/C: 70.7%
[25]
  viability, T/C: 92.5%
[26]
  viability, T/C: 86.5%
[27]
  viability, T/C: 78.1%
[28]
  viability, T/C: 72.9%
[29]
  viability, T/C: 74.8%
[30]
  viability, T/C: 73.3%
[31]
  viability, T/C: 92.8%
[32]
  viability, T/C: 76.3%
[33]
  viability, T/C: 82.7%
[34]
  viability, T/C: 73.1%
[35]
  viability, T/C: 77.6%
[36]
  viability, T/C: 83.1%
